# Assay: Intraperitoneal insulin sensitivity test (IPIST)
# Format: in vivo, mice
# Conditions: fasted 16 hours, 0.5 IU/kg intraperitoneal, after 30 minutes
# Procedure: Nineteen weeks after the beginning of the study, 5 mice in each group (control diet and HFD) were weighed and subjected to an intraperitoneal insulin sensitivity test (IPIST, the protocol of which is detailed below) to check the insulin resistance of the mice. At week 20, glycaemia tests, the protocol of which is detailed below, were performed. Just after the end of these tests, mice received daily 10^9 CFU of Lactobacillus acidophilus NCFM/mouse/day by oral gavage, for 3 weeks. At week 23, animals were sacrificed after weighing and after determination of glycaemia.
# Mice were fasted for 16 hours and received an intraperitoneal injection of human recombinant insulin (0.5 International Units/kg body weight); Actrapid®, Novo-Nordisk, Bagsvaerd, Denmark). Blood glucose was assayed immediately before and at 15, 30, 45, and 60 minutes after injection using a digital glucometer (Medisense Optium, Abbott, Rungis, France).
substance,measurement,setting,value
"insulin: human recombinant insulin (Actrapid, Novo-Nordisk) injected intraperitoneally in the IPIST test",decrease of glycaemia after insulin injection,control diet group,around 70%
same,decrease of glycaemia after insulin injection,high-fat diet group,around 45%

# Reference: patent US20110189149A1, “New Uses of Lactic Acid Bacteria and Bifidobacteria” (priority 2008, published 2011)
